From patent US20100267803A1, “Regulators Of Fat Metabolism As Anti-Cancer Targets” (The Research Foundation of State University Of New York, priority 2008, published 2010)

Experiments:
Type in all cases: cell-based, human
[1] = system: BT474, MDA-MB-361, MCF-7 and HMEC cells; assay: Cell counts after PPARγ antagonist treatment; settings: 10 and 20 μM for 72 hrs; % of vehicle
Protocol: FIG. 3 PPAR. inhibition impacts NR1D1 expression and ERBB2-positive cells viability. (a) Cell counts of BT474, MDA-MB-361, MCF-7 and HMEC cells treated with vehicle, 10 and 20 μM of the PPAR. antagonist GW9662 for 72 hrs. Results represented as % of control (vehicle). (Error bars are s.d from 3 individual experiments; *P>0.2, **P<0.05, ***P<0.002). (b) BT474 cells treated with vehicle or 20 μM of GW9662 for 48 h were immuno-stained for cleaved Caspase-3. (c) Quantification of Caspase-3 signal. (Error bars are s.d from 3 individual experiments; ***P=0.002). (d) aP2 and NR1D1 mRNA levels of BT474 cells treated with vehicle (control) and 20 μM of GW9662 for 48 h, analyzed by qRT-PCRs. (Error bars are s.d from 3 experiments; ***P<0.0006. (e) BMAL1-luc activity of BT474 cells treated with vehicle or 20 μM of GW9662 for 48 h. (Error bars are s.d from 3 individual experiments; **P=0.03). (f) Total ERBB2 western blot of BT474 cells treated with vehicle or 20 μM GW9662 for 72h. GAPDH was used as control.
(§1) Cell viability—apoptosis assays. […] At least 30 fields were imaged per single experiment. […] Immunoblotting. […] PCR reaction was run using standard conditions.

[2] = system: BT474 cells; assay: Counts of GFP co-transfected BT474 cells (cell death / viability); settings: shRNA co-transfected with GFP, counted up to 72 h
Protocol: (§2) Results are shown as percentage of control. (**P=0.03). (c) BT474 cells were transfected with luciferase (control), PBP and NR1D1 shRNAs and co-transfected with GFP. Green cells were counted at intervals and expressed as percentage of control. (Error bars are s.d from 3 individual experiments; *P<0.08, **P<0.03, ***P<0.005). (d) BT474 cells were transfected with luciferase (control), PBP or NR shRNAs for 48 h. Immunofluorescence was performed for cleaved Caspase-3 signal; cell nuclei were stained with Hoechst 33243. (e) Cells from […] were counted for cleaved Caspase-3 signal. (Error bars are s.d from 3 individual experiments; ***P<0.0003). (f) BT474 cells were transfected with luciferase (control) PBP, NR1D1 or PBP and NR1D1 shRNAs together and co-transfected with GFP. Transfected cells were counted at 24 h and 72 h and the 72 h-to-24 h ratio for each shRNA was calculated and expressed as % of the control shRNA (luciferase). (Error bars are s.d from 3 individual experiments; **P=0.01, ***P<0.002). (g) Cells from (f) were counted for cleaved Caspase-3 signal. (Error bars are s.d from 3 individual experiments; ***P<0.0001). (h) ERBB2 mRNA levels of BT474 cells transfected with luciferase (control), PBP or NR1D1 shRNAs for 48 h, analyzed by qRT-PCRs. (Error bars are s.d from 3 individual experiments; ***P=0.0001).
FIG. 4 NR1D1 and PBP coordinate fatty acid metabolism in breast cancer cells. (a) BT474, MDA-MB-361, MCF-7 and HMEC cells were stained with Oil-Red O lipid and hematoxylin nuclear stains. (b) Fat stores were quantified by BODIPY 493/503 lipid probe staining (Error bars are s.d from 3 individual experiments). (c) FASN, ACLY, ACACA and FADS2 mRNA levels of BT474 cells treated with luciferase (control), PBP or NR1D1 shRNAs, or with vehicle and 20 μM of GW9662 for 48 h, analyzed by qRT-PCRs. (Error bars are s.d from 3 experiments; ***P<0.001, **P=0.005) (d) BT474 cells were transfected with FASN, ACLY and ACACA shRNAs and co-transfected with GFP. Transfected cells were counted at 24 h and 72 h and the 72h-to-24 h ratio for each shRNA was calculated and expressed as % of the control shRNA (luciferase). (Error bars are s.d from 3 individual experiments; **P<0.01, ***P<0.002). (e) BODIPY images and (f) quantification of BT474 cells transfected with luciferase (control), PBP or NR1D1 shRNAs and co-transfected with DsRed (Error bars are s.d from 3 individual experiments; ***P<0.03). Arrows indicate transfected cells.
FIG. 5. (a) MDH1 and ME1 mRNA levels of BT474 cells treated with luciferase (control), PBP or NR1D1 shRNAs for 48 h, analyzed by qRT-PCRs. (Error bars are s.d from 3 experiments; **P<0.002 (b) BT474 and MCF-7 cells were transfected with luciferase (control) MDH1 and ME1 shRNAs (Error bars are s.d from 3 individual experiments; ***P=0.0003). (c) BT474 cells) assayed for cleaved Caspase-3 signal by immunofluorescence 48 h after transfection; cell nuclei were stained with Hoechst 33243. (d) Quantification of cleaved Caspase-3 signal from cells in (c). (Error bars are s.d from 3 individual experiments; ***P<0.005). (e) Enzymes involved in fatty acid synthesis and storage that are regulated by NR1D1 and PBP and their proposed contribution to energy production necessary for survival of ERBB2-positive breast cancer cells.
as §1

[3] = system: BT474 cells; assay: RNAi screen, alamarBlue cell proliferation and viability; settings: shRNA transfection
Description: (§3) FIG. 1 An RNAi screen targeting genes overexpressed in breast cancer. (a) Three transfection mixes were produced for each shRNA and each was transfected into triplicate wells of BT474 cells. AlamarBlue was used to monitor cell proliferation and viability. […] (b) The genetic and functional linkage of NR1D1 and PBP. Mb refers to map position on chromosome 17. (c) ERBB2-overexpressing (OEX) and ERBB2 non-overexpressing (non-OEX) breast cancer cell lines as well as the (non-OEX) HMEC and HEK 293 cells were transfected and assayed as in (a). […] Genes clustered with ERBB2 are boxed.
Amplification of the ERBB2 oncogene occurs in 10-34% of breast cancer cases and is correlated with aggressive disease and poor clinical outcome^1. […] However, its success has been tempered by response rates of only 30% when used as a single agent therapy in patients with metastatic ERBB2-positive breast cancer^2. A large number of genes co-overexpressed with ERBB2 in this tumour type have been proposed to contribute to the aggressiveness of this cancer^3-5. Applicants have performed an unbiased functional RNAi screen^8-10 to determine if any of these co-overexpressed genes are essential for ERBB2 positive breast cancer cell survival.
RNAi screen, transfections and constructs. The flag-RevErba (flag-NR1D1) overexpression construct was a generous gift of M. Lazar. The LSXN-neu* (ERBB2) overexpression construct was a generous gift of L. Petti. shRNA constructs were expressed from the pSHAG-MAGIC 2 (pSM2) vector and derived from a genome-wide shRNA library^31. ShRNAs targeting the firefly (Photinus pyralis) luciferase gene were used as controls. Transfection efficiency was monitored by co-transfection with a modified MSCV-Puro vector expressing green fluorescent protein (GFP). The alamarBlue (Biosource) assay was performed 96 h post-transfection, since BT474 cells have a population doubling time of ˜100 hours. For mature sequences of the shRNAs that produced the best results on decreasing BT474 viability, Table S1; a complete list is available in the RNAi Codex web page (http://codex.cshl.edu). The shRNAs targeting the luciferase gene were constructed as described in the RNAi Codex web page (http://codex.cshl.edu/scripts/newmain.pl) using a modified pSM2 vector containing the PheS gene (pSM2-PheS) in the cloning site, as a negative selection marker. The empty vector control (pSM2e) was constructed by XhoI and EcoRI (New England Biolabs) digestion of pSM2-PheS, followed by nucleotide filling of protruding ends by Klenow polymerase and blunt-end ligation. Transfections were performed using FuGENE 6 and HD FuGENE (Roche) according to the manufacturer's protocol. High-throughput transfections were performed using an EpMotion 5070 fluidics station (Eppendorf). For quantification of alamarBlue we used a BioTek HT Synergy plate reader. AlamarBlue values from the RNAi screens on other cell types were also calculated as above and subjected to hierarchical cluster analysis using Cluster 2.11 (M. Eisen Lab).

[4] = system: BT474 cells; assay: Apoptosis by cleaved Caspase-3 or activated Bax immunofluorescence; settings: 48 h of shRNA or 20 μM GW9662
Protocol: as §2
FIG. 3 PPAR. inhibition impacts NR1D1 expression and ERBB2-positive cells viability. (a) Cell counts of BT474, MDA-MB-361, MCF-7 and HMEC cells treated with vehicle, 10 and 20 μM of the PPAR. antagonist GW9662 for 72 hrs. Results represented as % of control (vehicle). (Error bars are s.d from 3 individual experiments; *P>0.2, **P<0.05, ***P<0.002). […] (c) Quantification of Caspase-3 signal. […] (d) aP2 and NR1D1 mRNA levels of BT474 cells treated with vehicle (control) and 20 μM of GW9662 for 48 h, analyzed by qRT-PCRs. […]
FIG. 5. (a) MDH1 and ME1 mRNA levels of BT474 cells treated with luciferase (control), PBP or NR1D1 shRNAs for 48 h, analyzed by qRT-PCRs. […] (d) Quantification of cleaved Caspase-3 signal from cells in (c). […]

[5] = system: ERBB2 overexpressing (BT474, MDA-MB-361) breast cancer cell lines; assay: alamarBlue proliferation of shRNA-transfected ERBB2-overexpressing cell lines; settings: shRNA transfection
Description: as §3
(§4) To assess the specificity of effect of each shRNA on cell proliferation, those causing the greatest decrease in BT474 cell proliferation were transfected in a variety of cell lines, including ERBB2 overexpressing (BT474, MDA-MB-361) and nonoverexpressing breast cancer cell lines (MCF-7, MDA-MB-453, MDA-MB-468), normal human mammary epithelial cells (HMECs) and a non-breast tumorigenic cell line (HEK 293FT). […] PBP, NRID1 and PFN2 shRNAs clustered with ERBB2.
(§5) RNAi screen, transfections and constructs. The flag-RevErba (flag-NR1D1) overexpression construct was a generous gift of M. Lazar. The LSXN-neu* (ERBB2) overexpression construct was a generous gift of L. Petti. shRNA constructs were expressed from the pSHAG-MAGIC 2 (pSM2) vector and derived from a genome-wide shRNA library^31. ShRNAs targeting the firefly (Photinus pyralis) luciferase gene were used as controls. Transfection efficiency was monitored by co-transfection with a modified MSCV-Puro vector expressing green fluorescent protein (GFP). The alamarBlue (Biosource) assay was performed 96 h post-transfection, since BT474 cells have a population doubling time of ˜100 hours. […] For quantification of alamarBlue we used a BioTek HT Synergy plate reader. AlamarBlue values from the RNAi screens on other cell types were also calculated as above and subjected to hierarchical cluster analysis using Cluster 2.11 (M. Eisen Lab).

[6] = system: nonoverexpressing breast cancer cell lines (MCF-7, MDA-MB-453, MDA-MB-468), HMECs, HEK 293FT; assay: alamarBlue proliferation of shRNA-transfected ERBB2 non-overexpressing cell lines; settings: MCF-7, MDA-MB-453, MDA-MB-468, HMEC, shRNA transfection
Description: as §3, §4, §5

Row | Compound | cell death / viability (cell number of transfected cells) [2] | effect on cell proliferation [3] | further results
1 | O=C(Nc1ccncc1)c1cc([N+](=O)[O-])ccc1Cl [second PPARγ antagonist] |  |  | sensitivity of cells to drug treatment (cell counts) [1]: produced the same effects
2 | ACACA shRNA: shRNA, mature sequence CACATGACCTTAAGATTAT (shRNA) | significantly decreased BT474 cell viability |  | 
3 | ACLY shRNA: shRNA, mature sequence GGGAGGAAGCTGATGAATA (shRNA) | significantly decreased BT474 cell viability |  | 
4 | CA9 shRNA: shRNA, mature sequence CTTTGAATGGGCGAGTGAT (shRNA) |  | significant effects on proliferation | 
5 | FADS2 shRNA: shRNA, mature sequence CCCATAGGGAGCTGATCGT (shRNA) |  | moderate effect on cell proliferation | 
6 | FASN shRNA: shRNA, mature sequence CTGGCCCAGGCTGAAGTTT (shRNA) | significantly decreased BT474 cell viability | moderate effect on cell proliferation | 
7 | MAP2K6 shRNA: shRNA, mature sequence CAGATGACCTGGAGCCTAT (shRNA) |  | most dramatic effect on cell proliferation | 
8 | MDH1 shRNA: shRNA, mature sequence CGAGCTAAAGCTCAAATTG (shRNA) | cell death |  | apoptosis [4]: apoptosis
9 | ME1 shRNA: shRNA, mature sequence GGCTTTATCCTCCTTTGAA (shRNA) | cell death |  | apoptosis [4]: apoptosis
10 | MKI67 shRNA: shRNA, mature sequence GCTACAAACTCCTAAGGAA (shRNA) |  | significant effects on proliferation | 
11 | PFN2 shRNA: shRNA, mature sequence AGCATTACGCCAATAGAAA (shRNA) |  |  | viability of ERBB2-positive cells [5]: specifically decreased the viability of ERBB2-positive cells; effect on other cell lines or HMECs [6]: without effect on other cell lines or HMECs
12 | TPD52 shRNA: shRNA, mature sequence CTGTGAGATTCCTACCTTT (shRNA) |  | significant effects on proliferation | 
